Test results published in EP4806894A1, “TNAP INHIBITORY COMPOUND AND USE THEREOF” (Rednvia Co., Ltd., priority 2023, dated 2025).

Key:
[1] = biological target: T1, TNAP (Homo sapiens, UniProt P05186); assay: TNAP inhibitory activity, colorimetric assay (alkaline phosphatase assay kit ab83369, pNPP substrate); assay type: biochemical; details: TNAP enzyme, 2 hours at room temperature, absorbance 405 nm
T1 sequence (P05186 18-502 limits assumed): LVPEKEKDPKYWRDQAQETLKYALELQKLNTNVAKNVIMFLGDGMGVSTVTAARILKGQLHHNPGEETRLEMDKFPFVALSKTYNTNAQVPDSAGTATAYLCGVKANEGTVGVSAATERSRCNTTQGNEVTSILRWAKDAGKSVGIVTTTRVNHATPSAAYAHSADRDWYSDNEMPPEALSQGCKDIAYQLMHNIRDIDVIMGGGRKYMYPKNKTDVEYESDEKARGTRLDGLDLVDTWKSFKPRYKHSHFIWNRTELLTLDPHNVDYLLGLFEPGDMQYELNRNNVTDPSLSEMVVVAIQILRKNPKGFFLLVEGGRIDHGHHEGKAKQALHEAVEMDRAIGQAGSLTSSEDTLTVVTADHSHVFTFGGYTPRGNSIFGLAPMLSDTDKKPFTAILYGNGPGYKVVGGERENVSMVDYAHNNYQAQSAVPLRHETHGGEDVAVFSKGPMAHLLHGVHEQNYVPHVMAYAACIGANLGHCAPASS

[2] = test system: saos-2 cells; assay: Anticalcification efficacy in saos-2 cells (osteogenic medium, Alizarin Red staining); assay type: cell-based; details: Homo sapiens, 168 h, test compound 1 µM, 7 days osteogenic medium, Alizarin Red absorbance 540 nm, read-out: calcification inhibition
In short: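 Saos-2 cells at 80–90% confluence induced for 7 days in osteogenic medium (DMEM, 100 nM dexamethasone, 10 mM β-glycerophosphate, 0.05 mM ascorbic acid), compound (0.5, 1, 5, 10 […]) added with each medium change. Alizarin Red staining eluted with cetylpyridinium chloride, A540 read; inhibition taken against OM-only absorbance.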

SMILES	IC50 [1]	inhibition at 1 µM [2]
CCOC(=O)N1CCc2ncc(NS(=O)(=O)c3cc(Br)ccc3OC)cc2C1 [Example 97, ethyl3-((5-bromo-2-methoxyphenyl)sulfonamido)-7,8-dihydro-1,6-naphthyridine-6(5H)-carboxylate]	100 to 1000 nM	≥ 50%
COc1ccc(Cl)cc1S(=O)(=O)Nc1cnc2c(c1)CN(C(=O)OCC(C)(C)C)CC2 [Example 98, neopentyl3-((5-chloro-2-methoxyphenyl)sulfonamido)-7,8-dihydro-1,6-naphthyridine-6(5H)-carboxylate]	100 to 1000 nM	≥ 50%
COc1ccc(Br)cc1S(=O)(=O)Nc1cnc2c(c1)CN(C(=O)OCC(C)(C)C)CC2 [Example 99, neopentyl3-((5-bromo-2-methoxyphenyl)sulfonamido)-7,8-dihydro-1,6-naphthyridine-6(5H)-carboxylate]	100 to 1000 nM	< 0%
COc1ccc(OC)c(S(=O)(=O)Nc2cnc3c(c2)CN(C(=O)OCC(C)(C)C)CC3)c1 [Example 100, neopentyl3-((5-methoxy-2-methoxyphenyl)sulfonamido)-7,8-dihydro-1,6-naphthyridine-6(5H)-carboxylate]	100 to 1000 nM	≥ 50%
COc1ccc(Cl)cc1S(=O)(=O)Nc1cnc2c(c1)CN(C(=O)OCCF)CC2 [Example 101, 2-fluoroethyl-3-((5-chloro-2-methoxyphenyl)sulfonamido)-7,8-dihydro-1,6-naphthyridine-6(5H)-carboxylate]	10 to 100 nM	< 0%
COc1ccc(Br)cc1S(=O)(=O)Nc1cnc2c(c1)CN(C(=O)OCCF)CC2 [Example 102, 2-fluoroethyl3-((5-bromo-2-methoxyphenyl)sulfonamido)-7,8-dihydro-1,6-naphthyridine-6(5H)-carboxylate]	10 to 100 nM	≥ 50%
COc1ccc(OC)c(S(=O)(=O)Nc2cnc3c(c2)CN(C(=O)OCCF)CC3)c1 [Example 103, 2-fluoroethyl-3-((5-methoxy-2-methoxyphenyl)sulfonamido)-7,8-dihydro-1,6-naphthyridine-6(5H)-carboxylate]	10 to 100 nM	≥ 50%
COc1ccc(Cl)cc1S(=O)(=O)Nc1cnc2c(c1)CN(C(=O)NC(C)C)CC2 [Example 104, 3-((5-chloro-2-methoxyphenyl)sulfonamido)-N-isopropyl-7,8-dihydro-1,6-naphthyridine-6(5H)-carboxamide]	10 to 100 nM	≥ 50%
COc1ccc(F)cc1S(=O)(=O)Nc1cnc2c(c1)CN(C(=O)NC(C)C)CC2 [Example 105, 3-((5-fluoro-2-methoxyphenyl)sulfonamido)-N-isopropyl-7,8-dihydro-1,6-naphthyridine-6(5H)-carboxamide]	10 to 100 nM	≥ 50%
CCCCCNC(=O)N1CCc2ncc(NS(=O)(=O)c3cc(Cl)ccc3OC)cc2C1 [Example 106, 3-((5-chloro-2-methoxyphenyl)sulfonamido)-N-pentyl-7,8-dihydro-1,6-naphthyridine-6(5H)-carboxamide]	100 to 1000 nM	≥ 50%
COc1ccc(Cl)cc1S(=O)(=O)Nc1cnc2c(c1)CN(C(=O)NCC(F)F)CC2 [Example 107, 3-((5-chloro-2-methoxyphenyl)sulfonamido)-N-(2,2-difluoroethyl)-7,8-dihydro-1,6-naphthyridine-6(5H)-carboxamide]	10 to 100 nM	≥ 50%
COc1ccc(Br)cc1S(=O)(=O)Nc1cnc2c(c1)CN(C(=O)NCC(F)F)CC2 [Example 108, 3-((5-bromo-2-methoxyphenyl)sulfonamido)-N-(2,2-difluoroethyl)-7,8-dihydro-1,6-naphthyridine-6(5H)-carboxamide]	10 to 100 nM	≥ 50%
COc1ccc(Cl)cc1S(=O)(=O)Nc1cnc2c(c1)CN(C(=O)N1CCOCC1)CC2 [Example 109, 5-chloro-2-methoxy-N-(6-(morpholine-4-carbonyl)-5,6,7,8-tetrahydro-1,6-naphthyridine-3-yl)benzenesulfonamide]	10 to 100 nM	≥ 50%
COc1ccc(Br)cc1S(=O)(=O)Nc1cnc2c(c1)CN(C(=O)N1CCOCC1)CC2 [Example 110, 5-bromo-2-methoxy-N-(6-(morpholine-4-carbonyl)-5,6,7,8-tetrahydro-1,6-naphthyridine-3-yl)benzenesulfonamide]	10 to 100 nM	≥ 50%
CNC(=O)N1CCc2ncc(NS(=O)(=O)c3cc(Br)ccc3OC)cc2C1 [Example 111, 3-((5-bromo-2-methoxyphenyl)sulfonamido)-N-methyl-7,8-dihydro-1,6-naphthyridine-6(5H)-carboxamide]	10 to 100 nM	≥ 50%
COc1ccc(Cl)cc1S(=O)(=O)Nc1cnc2c(c1)CN(C(C)C)CC2 [Example 112, 5-chloro-N-(6-isopropyl-5,6,7,8-tetrahydro-1,6-naphthyridine-3-yl)-2-methoxybenzenesulfonamide]	100 to 1000 nM	< 0%
COc1ccc(Br)cc1S(=O)(=O)Nc1cnc2c(c1)CN(C(C)C)CC2 [Example 113, 5-bromo-N-(6-isopropyl-5,6,7,8-tetrahydro-1,6-naphthyridine-3-yl)-2-methoxybenzenesulfonamide]	100 to 1000 nM	< 0%
COc1ccc(Cl)cc1S(=O)(=O)Nc1cnc2c(c1)CN(c1ncccn1)CC2 [Example 114, 3-5-chloro-2-methoxy-N-(6-(pyrimidine-2-yl)-5,6,7,8-tetrahydro-1,6-naphthyridine-3-yl)benzenesulfonamide]	10 to 100 nM	≥ 50%
COc1ccc(Cl)cc1S(=O)(=O)Nc1cnc2c(c1)CN(C(=O)Nc1ccccc1)CC2 [Example 115, 3-((5-chloro-2-methoxyphenyl)sulfonamido)-N-phenyl-7,8-dihydro-1,6-naphthyridine-6(5H)-carboxamide]	10 to 100 nM	≥ 50%
COc1ccc(Cl)cc1S(=O)(=O)Nc1cnc2c(c1)CN(C(=O)NCC1CC1)CC2 [Example 116, 3-((5-chloro-2-methoxyphenyl)sulfonamido)-N-(cyclopropylmethyl)-7,8-dihydro-1,6-naphthyridine-6(5H)-carboxamide]	10 to 100 nM	≥ 50%
COc1ccc(Cl)cc1S(=O)(=O)Nc1cnc2c(c1)CN(C(=O)NCCF)CC2 [Example 117, 3-((5-chloro-2-methoxyphenyl)sulfonamido)-N-(2-fluoroethyl)-7,8-dihydro-1,6-naphthyridine-6(5H)-carboxamide]	10 to 100 nM	≥ 50%
COc1ccc(Cl)cc1S(=O)(=O)Nc1cnc2c(c1)CN(C(=O)CC(C)(C)C)CC2 [Example 118, 5-chloro-N-(6-(3,3-dimethylbutanoyl)-5,6,7,8-tetrahydro-1,6-naphthyridine-3-yl)-2-methoxybenzenesulfonamide]	10 to 100 nM	≥ 50%
COc1ccc(Br)cc1S(=O)(=O)Nc1cnc2c(c1)CN(C(=O)CC(C)(C)C)CC2 [Example 119, 5-bromo-N-(6-(3,3-dimethylbutanoyl)-5,6,7,8-tetrahydro-1,6-naphthyridine-3-yl)-2-methoxybenzenesulfonamide]	10 to 100 nM	≥ 50%
COc1ccc(-c2cnn(-c3ccncc3)c2)cc1S(=O)(=O)Nc1cnc2c(c1)C(=O)NCC2 [Example 120, 2-methoxy-N-(5-oxo-5,6,7,8-tetrahydro-1,6-naphthyridine-3-yl)-5-(1-(pyridine-4-yl)-1H-pyrazole-4-yl)benzenesulfonamide]	100 to 1000 nM	< 0%
COc1ccc(-c2c(C)nn(C)c2C)cc1S(=O)(=O)Nc1cnc2c(c1)C(=O)NCC2 [Example 121, 2-methoxy-N-(5-oxo-5,6,7,8-tetrahydro-1,6-naphthyridine-3-yl)-5-(1,3,5-trimethyl-1H-pyrazole-4-yl)benzenesulfonamide]	100 to 1000 nM	< 0%
COc1ccc(-c2cnn(C(C)(C)C)c2)cc1S(=O)(=O)Nc1cnc2c(c1)C(=O)NCC2 [Example 122, 5-(1-(tert-butyl)-1H-pyrazole-4-yl)-2-methoxy-N-(5-oxo-5,6,7,8-tetrahydro-1,6-naphthyridine-3-yl)benzenesulfonamide]	10 to 100 nM	< 0%
CCCCn1cc(-c2ccc(OC)c(S(=O)(=O)Nc3cnc4c(c3)C(=O)NCC4)c2)cn1 [Example 123, 5-(1-butyl-1H-pyrazole-4-yl)-2-methoxy-N-(5-oxo-5,6,7,8-tetrahydro-1,6-naphthyridine-3-yl)benzenesulfonamide]	10 to 100 nM	≥ 50%
COc1ccc(-c2cnn(-c3ccccc3)c2)cc1S(=O)(=O)Nc1cnc2c(c1)C(=O)NCC2 [Example 124, 2-methoxy-N-(5-oxo-5,6,7,8-tetrahydro-1,6-naphthyridine-3-yl)-5-(1-phenyl-1H-pyrazole-4-yl)benzenesulfonamide]	100 to 1000 nM	< 0%
